Test results published in ChEMBL document CHEMBL1201862, “PubChem BioAssay data set” (2004).
Structures can show the parent of a compound that is named as a salt.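 Cultured in 96-well plates, cells were exposed to test compound for 48 hours across five concentrations. GI50 is the concentration that inhibits growth by half.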 Calls of active or inactive are those of the source. Cut-off read from the data, not from the text of the source: active = GI50 up to about 1.1 µM and inactive = higher.

How the values were obtained:
Experiment in all cases: NCI-60 cell line screen, 48 h
786-0 = tested on: 786-0
A549 = tested on: A549
CCRF-CEM = tested on: CCRF-CEM
HCT-116 = tested on: HCT-116
K562 = tested on: K562
M14 = tested on: M14
MOLT-4 = tested on: MOLT-4
Malme-3M = tested on: Malme-3M
NCI-H460 = tested on: NCI-H460
NCI-H522 = tested on: NCI-H522
OVCAR-4 = tested on: OVCAR-4
RXF 393 = tested on: RXF 393
SF-268 = tested on: SF-268
SF-539 = tested on: SF-539
SK-MEL-5 = tested on: SK-MEL-5
TK-10 = tested on: TK-10
UACC-62 = tested on: UACC-62
EKVX = tested on: EKVX
BT-549 = tested on: BT-549
T47D = tested on: T47D

Row | SMILES | GI50 (786-0) | GI50 (A549) | GI50 (CCRF-CEM) | GI50 (HCT-116) | GI50 (K562) | GI50 (M14) | GI50 (MOLT-4) | GI50 (Malme-3M) | GI50 (NCI-H460) | GI50 (NCI-H522) | GI50 (OVCAR-4) | GI50 (RXF 393) | GI50 (SF-268) | GI50 (SF-539) | GI50 (SK-MEL-5) | GI50 (TK-10) | GI50 (UACC-62) | GI50 (EKVX) | GI50 (BT-549) | GI50 (T47D)
1 | O=C(CSc1nnc(Cc2ccccc2)o1)Nc1ccccc1 | > 100 µM (inactive) | > 100 µM (inactive) | > 100 µM (inactive) | > 100 µM (inactive) | > 100 µM (inactive) | > 100 µM (inactive) | > 100 µM (inactive) | > 100 µM (inactive) | > 100 µM (inactive) | > 100 µM (inactive) | > 100 µM (inactive) | > 100 µM (inactive) | > 100 µM (inactive) | > 100 µM (inactive) | > 100 µM (inactive) | > 100 µM (inactive) | > 100 µM (inactive) | – | – | –
2 | O=C1Cc2ccccc2CCc2ccccc21 | > 100 µM (inactive) | > 100 µM (inactive) | > 100 µM (inactive) | > 100 µM (inactive) | 75.3 µM (inactive) | > 100 µM (inactive) | > 100 µM (inactive) | 44.7 µM (inactive) | > 100 µM (inactive) | 68.9 µM (inactive) | > 100 µM (inactive) | > 100 µM (inactive) | > 100 µM (inactive) | > 100 µM (inactive) | > 100 µM (inactive) | > 100 µM (inactive) | > 100 µM (inactive) | 79.6 µM (inactive) | – | –
3 | CCOC(=O)C12C3CCC1C2C(=O)C3 (stereo unspecified) | > 100 µM (inactive) | > 100 µM (inactive) | > 100 µM (inactive) | > 100 µM (inactive) | > 100 µM (inactive) | > 100 µM (inactive) | > 100 µM (inactive) | > 100 µM (inactive) | > 100 µM (inactive) | > 100 µM (inactive) | > 100 µM (inactive) | > 100 µM (inactive) | > 100 µM (inactive) | > 100 µM (inactive) | > 100 µM (inactive) | > 100 µM (inactive) | > 100 µM (inactive) | > 100 µM (inactive) | > 100 µM (inactive) | –
4 | O=C(c1ccccc1)c1ccc(OCCOc2ccc(Nc3ccccc3)cc2)cc1 | 25 µM (inactive) | 64.3 µM (inactive) | > 100 µM (inactive) | 69.2 µM (inactive) | > 100 µM (inactive) | 49.5 µM (inactive) | > 100 µM (inactive) | 19.2 µM (inactive) | 65.5 µM (inactive) | 17.8 µM (inactive) | 17.7 µM (inactive) | 35.2 µM (inactive) | 27.3 µM (inactive) | 24.5 µM (inactive) | 21.9 µM (inactive) | 28.6 µM (inactive) | 63.4 µM (inactive) | 74.8 µM (inactive) | – | –
5 | CCOC(=O)C1=C(O)C(=O)c2c(OC)ccc(OC)c2C1=O | > 100 µM (inactive) | > 100 µM (inactive) | > 100 µM (inactive) | > 100 µM (inactive) | > 100 µM (inactive) | > 100 µM (inactive) | > 100 µM (inactive) | > 100 µM (inactive) | > 100 µM (inactive) | > 100 µM (inactive) | > 100 µM (inactive) | > 100 µM (inactive) | > 100 µM (inactive) | > 100 µM (inactive) | > 100 µM (inactive) | > 100 µM (inactive) | > 100 µM (inactive) | > 100 µM (inactive) | – | –
6 | Oc1ccc(-c2c3ccccc3c(-c3ccc(O)cc3)c3ccccc23)cc1 | > 100 µM (inactive) | > 100 µM (inactive) | > 100 µM (inactive) | 87.5 µM (inactive) | > 100 µM (inactive) | > 100 µM (inactive) | > 100 µM (inactive) | > 100 µM (inactive) | > 100 µM (inactive) | > 100 µM (inactive) | > 100 µM (inactive) | > 100 µM (inactive) | > 100 µM (inactive) | > 100 µM (inactive) | > 100 µM (inactive) | > 100 µM (inactive) | 41 µM (inactive) | > 100 µM (inactive) | – | –
7 | CCC1C(=O)C(O)[C@H]2[C@@H]3C(O)CC4=CC(=O)CC[C@]4(C)[C@H]3CC[C@]12C (stereo partly specified) | > 50 µM (inactive) | > 50 µM (inactive) | > 50 µM (inactive) | > 50 µM (inactive) | > 50 µM (inactive) | > 50 µM (inactive) | > 50 µM (inactive) | > 50 µM (inactive) | > 50 µM (inactive) | > 50 µM (inactive) | – | – | > 50 µM (inactive) | > 50 µM (inactive) | > 50 µM (inactive) | > 50 µM (inactive) | > 50 µM (inactive) | > 50 µM (inactive) | – | > 50 µM (inactive)
8 | C(=N\Cc1ccccc1)/c1ccccc1-c1ccccc1/C=N/Cc1ccccc1 | > 10 µM (inactive) | > 10 µM (inactive) | 2.65 µM (inactive) | 2.86 µM (inactive) | 3.13 µM (inactive) | 9.86 µM (inactive) | 3.52 µM (inactive) | > 9.62 µM (inactive) | > 8.34 µM (inactive) | > 10 µM (inactive) | > 7.96 µM (inactive) | > 10 µM (inactive) | > 10 µM (inactive) | > 10 µM (inactive) | > 7.03 µM (inactive) | > 10 µM (inactive) | > 7.23 µM (inactive) | > 10 µM (inactive) | – | 4.99 µM (inactive)
9 | CCOP12(OCC)NC(=O)OC1(C(F)(F)F)c1ccccc1O2 (stereo unspecified) | > 100 µM (inactive) | > 100 µM (inactive) | > 100 µM (inactive) | > 100 µM (inactive) | > 100 µM (inactive) | > 100 µM (inactive) | > 100 µM (inactive) | > 100 µM (inactive) | > 100 µM (inactive) | > 100 µM (inactive) | > 100 µM (inactive) | > 100 µM (inactive) | > 100 µM (inactive) | > 100 µM (inactive) | > 100 µM (inactive) | > 100 µM (inactive) | > 100 µM (inactive) | – | – | –
10 | NNC(=O)CCC(=O)Nc1cc(Cl)c(Cl)cc1Cl | > 100 µM (inactive) | > 100 µM (inactive) | > 100 µM (inactive) | > 100 µM (inactive) | > 100 µM (inactive) | > 100 µM (inactive) | 90.6 µM (inactive) | > 100 µM (inactive) | > 100 µM (inactive) | > 100 µM (inactive) | 51.5 µM (inactive) | > 100 µM (inactive) | > 100 µM (inactive) | > 100 µM (inactive) | > 100 µM (inactive) | > 100 µM (inactive) | > 100 µM (inactive) | – | – | –
11 | O=c1[nH][nH]c(=O)n1/N=C/c1ccccc1 | > 100 µM (inactive) | > 100 µM (inactive) | > 100 µM (inactive) | > 100 µM (inactive) | > 100 µM (inactive) | > 100 µM (inactive) | > 100 µM (inactive) | – | > 100 µM (inactive) | – | – | – | > 100 µM (inactive) | > 100 µM (inactive) | > 100 µM (inactive) | > 100 µM (inactive) | > 100 µM (inactive) | > 100 µM (inactive) | > 100 µM (inactive) | > 100 µM (inactive)
12 | Cc1ccc(NC(=O)CC2C(=O)Nc3ccccc3S2(=O)=O)c(C)c1 (stereo unspecified) | 18.3 µM (inactive) | 18.7 µM (inactive) | 16.4 µM (inactive) | 12.2 µM (inactive) | 4.66 µM (inactive) | 11.2 µM (inactive) | 7.33 µM (inactive) | 12.9 µM (inactive) | 16 µM (inactive) | 10.9 µM (inactive) | 18.7 µM (inactive) | 17 µM (inactive) | 20.3 µM (inactive) | 15.5 µM (inactive) | 4.78 µM (inactive) | 25.9 µM (inactive) | 7.26 µM (inactive) | 42.5 µM (inactive) | – | –
13 | Cc1ccc(C)c(NC(=O)C(=O)C2C(=O)C3=C(CC2(C)C)Nc2ccccc2S3)c1 (stereo unspecified) | 61.8 µM (inactive) | > 100 µM (inactive) | 70.6 µM (inactive) | > 100 µM (inactive) | – | > 100 µM (inactive) | 23.9 µM (inactive) | – | > 100 µM (inactive) | > 100 µM (inactive) | > 100 µM (inactive) | 60.5 µM (inactive) | 62.7 µM (inactive) | 56.9 µM (inactive) | 79.8 µM (inactive) | > 100 µM (inactive) | > 100 µM (inactive) | 73.5 µM (inactive) | > 100 µM (inactive) | –
14 | c1csc(-c2nnc(C34CC5CC(CC(C5)C3)C4)o2)c1 | 24.7 µM (inactive) | 39.4 µM (inactive) | 21.7 µM (inactive) | 32.2 µM (inactive) | 34 µM (inactive) | 37.2 µM (inactive) | 24.7 µM (inactive) | 16.4 µM (inactive) | 39.9 µM (inactive) | 36.8 µM (inactive) | 34.2 µM (inactive) | 23.3 µM (inactive) | 46.5 µM (inactive) | 19 µM (inactive) | 17.1 µM (inactive) | 47.4 µM (inactive) | 36.2 µM (inactive) | 44.1 µM (inactive) | – | 26.9 µM (inactive)
15 | NCCCNCCCCNCCCN [SPERMINE TETRAHYDROCHLORIDE] | 1.46 µM (inactive) | > 100 µM (inactive) | 3.67 µM (inactive) | 2.73 µM (inactive) | 2.33 µM (inactive) | 9.66 µM (inactive) | 4.53 µM (inactive) | 93.1 µM (inactive) | > 100 µM (inactive) | 0.374 µM (active) | – | 14.1 µM (inactive) | > 42.7 µM (inactive) | 8.83 µM (inactive) | > 57.9 µM (inactive) | 6.62 µM (inactive) | > 100 µM (inactive) | 17.8 µM (inactive) | – | 2.36 µM (inactive)
